Experiments:
[1] = system: Receptor-type tyrosine-protein kinase FLT3 (Homo sapiens), P36888 [D835Y]; test: Inhibition of human FLT3 kinase D835Y mutant assessed as residual activity at 10 uM relative to control
[2] = biological target: T1, Receptor-type tyrosine-protein kinase FLT3 (Homo sapiens, UniProt P36888)
T1 sequence (P36888 whole entry): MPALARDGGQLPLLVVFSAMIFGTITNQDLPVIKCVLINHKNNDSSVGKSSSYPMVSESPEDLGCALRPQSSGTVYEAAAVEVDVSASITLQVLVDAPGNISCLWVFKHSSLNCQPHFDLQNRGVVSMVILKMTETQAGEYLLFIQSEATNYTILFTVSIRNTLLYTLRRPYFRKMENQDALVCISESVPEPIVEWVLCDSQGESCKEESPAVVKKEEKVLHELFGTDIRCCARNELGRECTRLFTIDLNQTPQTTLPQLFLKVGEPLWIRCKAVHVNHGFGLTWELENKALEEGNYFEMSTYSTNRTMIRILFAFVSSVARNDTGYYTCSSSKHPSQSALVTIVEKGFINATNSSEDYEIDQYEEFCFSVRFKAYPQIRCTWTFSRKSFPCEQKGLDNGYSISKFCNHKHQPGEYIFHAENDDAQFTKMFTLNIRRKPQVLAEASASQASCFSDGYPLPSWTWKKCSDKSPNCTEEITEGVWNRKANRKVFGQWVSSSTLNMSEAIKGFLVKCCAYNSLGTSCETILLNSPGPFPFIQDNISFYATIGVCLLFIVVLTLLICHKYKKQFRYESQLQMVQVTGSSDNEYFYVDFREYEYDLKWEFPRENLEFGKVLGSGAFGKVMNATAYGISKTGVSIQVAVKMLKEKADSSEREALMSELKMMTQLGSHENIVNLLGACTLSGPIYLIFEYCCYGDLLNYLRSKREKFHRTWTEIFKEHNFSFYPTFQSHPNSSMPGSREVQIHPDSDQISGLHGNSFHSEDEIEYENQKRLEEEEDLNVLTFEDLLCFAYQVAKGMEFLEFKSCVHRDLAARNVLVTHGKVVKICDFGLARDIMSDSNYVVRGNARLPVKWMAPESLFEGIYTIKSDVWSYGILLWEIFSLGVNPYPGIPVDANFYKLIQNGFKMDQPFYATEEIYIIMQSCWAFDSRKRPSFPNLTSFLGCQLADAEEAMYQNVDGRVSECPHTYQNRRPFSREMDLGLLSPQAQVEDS
Description: Inhibition of FLT3 kinase (unknown origin)

[3] = Growth inhibition of human THP1 cells by XTT assay; type: functional; settings: THP-1
[4] = biological target: Receptor-type tyrosine-protein kinase FLT3 (Homo sapiens) (UniProt P36888); test: Inhibition of human FLT3 kinase assessed as residual activity at 10 uM relative to control
[5] = biological target: T2, Inhibitor of nuclear factor kappa-B kinase subunit beta (Homo sapiens, UniProt O14920)
T2 sequence (O14920 whole entry): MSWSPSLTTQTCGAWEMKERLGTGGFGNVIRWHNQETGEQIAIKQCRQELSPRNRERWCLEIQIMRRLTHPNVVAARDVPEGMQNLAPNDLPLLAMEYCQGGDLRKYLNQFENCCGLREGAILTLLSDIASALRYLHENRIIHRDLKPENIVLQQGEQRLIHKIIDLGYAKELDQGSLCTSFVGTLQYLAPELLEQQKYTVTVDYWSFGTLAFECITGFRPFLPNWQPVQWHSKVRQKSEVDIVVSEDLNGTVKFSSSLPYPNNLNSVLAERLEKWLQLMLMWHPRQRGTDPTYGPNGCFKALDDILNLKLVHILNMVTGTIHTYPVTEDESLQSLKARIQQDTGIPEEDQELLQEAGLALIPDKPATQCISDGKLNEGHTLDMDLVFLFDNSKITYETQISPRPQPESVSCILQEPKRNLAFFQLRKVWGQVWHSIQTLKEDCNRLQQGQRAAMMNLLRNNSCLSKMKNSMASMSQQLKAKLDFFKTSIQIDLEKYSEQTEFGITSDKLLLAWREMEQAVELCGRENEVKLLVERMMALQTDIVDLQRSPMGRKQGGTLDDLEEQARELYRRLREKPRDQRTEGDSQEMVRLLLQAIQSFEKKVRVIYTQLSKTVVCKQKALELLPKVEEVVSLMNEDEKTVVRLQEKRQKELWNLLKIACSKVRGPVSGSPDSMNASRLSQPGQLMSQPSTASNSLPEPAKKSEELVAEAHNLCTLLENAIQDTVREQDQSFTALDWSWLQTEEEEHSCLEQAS
Description: Inhibition of IKKbeta kinase (unknown origin) by Lance ULight system

HL-60 = test: Growth inhibition of human HL60 cells by XTT assay; type: functional
RAW264.7 [6] = test: cells; settings: Mus musculus
Description: Antiinflammatory activity against mouse RAW264.7 cells assessed as reduction of LPS-induced TNF-alpha production

RAW264.7 [7] = test: cells; settings: Mus musculus; remark: listed apart in the source
Description: Antiinflammatory activity against mouse RAW264.7 cells assessed as reduction of LPS-induced NO production

K562 = test: Growth inhibition of human K562 cells by XTT assay; type: functional; parameters: scale not given: the % may be the effect or the level left
MV4-11 = test: Growth inhibition of human MV4-11 cells by XTT assay; type: functional
[8] = biological target: T2, Inhibitor of nuclear factor kappa-B kinase subunit beta; remark: listed apart in the source
Description: Inhibition of IKKbeta kinase (unknown origin) by Radioisotope system

CC1=CC(=O)N(Nc2nc(-c3cccs3)nc3scc(C)c23)C1=O
Activity [1]: 2% | IC50 [2]: 65 nM | GI50 [3]: 111 nM | Activity [4]: 5% | IC50 [5]: > 50000 nM | GI50 (HL-60): 264 nM | IC50 (RAW264.7 [6]): 4220 nM | IC50 (RAW264.7 [7]): 1920 nM | Activity (K562): 0.257% | GI50 (MV4-11): 3 nM | IC50 [8]: Not Active

— ChEMBL document CHEMBL3286226, “Discovery of thienopyrimidine-based FLT3 inhibitors from the structural modification of known IKKβ inhibitors” (Bioorg Med Chem Lett, 2014)
